From patent US20260209214A1, “LSD1 MODULATORS” (RECURSION PHARMACEUTICALS, INC., priority 2022, published 2026) come the findings set out here.

Structures can show the parent of a compound that is named as a salt.

The experiment concerns the target Recombinant human LSD1 (Homo sapiens, UniProt O60341). The experiment is described as follows: LSD1 inhibition assay (HTRF LSD1 Histone H3K4 mono-demethylation assay, me1->me0). It is filed as biochemical. The conditions noted are these: 20 nM recombinant human LSD1, 95 nM H3K4(me1) biotinylated peptide, 15 min preincubation, 60 min at 25° C., read-out: LSD1 inhibition IC50 (nM range). The method, boiled down:
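HTRF demethylation (me1->me0) read-out: streptavidin-XL665 and anti-H3K4me0 cryptate added after reaction, ratio measured after 90 min dark. Reaction: 95 nM H3K4me1 biotin-peptide, 20 nM LSD1 (15-min compound pre-incubation), 60 min, 25 °C, buffer pH 8.5 plus FAD and DTT; 4-parameter logistic IC50.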

For `Cn1nc2ccc(-c3ccc(CC4CNCCO4)cc3-c3ccc(C#N)c(F)c3)cc2c1Cl` (stereo not shown) [Example 91, 2′-(3-chloro-2-methyl-2H-indazol-5-yl)-3-fluoro-5′-[(morpholin-2-yl)methyl]-[1,1′-biphenyl]-4-carbonitrile], the IC50 lay in the range of 25 to 100 nM.
`N#Cc1ccc(-c2cccc(CC3CNCCO3)c2-c2cocn2)cc1F` (stereo not shown) [Example 92, 3-fluoro-3′-[(morpholin-2-yl)methyl]-2′-(1,3-oxazol-4-yl)-[1,1′-biphenyl]-4-carbonitrile]: the IC50 lay in the range of 100 to 1000 nM.
As to `N#Cc1ccc(-c2cc(CC3CNCCO3)ccc2-c2ccc(N3CCCC3)nc2)cc1F` (stereo not shown) [Example 93, 3-fluoro-5′-[(morpholin-2-yl)methyl]-2′-[6-(pyrrolidin-1-yl)pyridin-3-yl]-[1,1′-biphenyl]-4-carbonitrile], the IC50 was 25 to 100 nM.
The figure for `COCCOc1ccc(-c2ccc(CC3CNCCO3)cc2-c2ccc(C#N)c(F)c2)cc1` (stereo not shown) [Example 94, 3-fluoro-2′-[4-(2-methoxyethoxy)phenyl]-5′-[(morpholin-2-yl)methyl]-[1,1′-biphenyl]-4-carbonitrile] is 25 to 100 nM; for `CN(C)C1CCN(c2cccc(-c3ccc(C#N)c(F)c3)c2-c2cnco2)CC1` [Example 95, 3'-[4-(dimethylamino)piperidin-1-yl]-3-fluoro-2'-(1,3-oxazol-5-yl)-[1,1'-biphenyl]-4-carbonitrile] it is 25 to 100 nM.
For `N#Cc1ccc(-c2cc(CC3CNCCO3)ccc2-c2ccc(OCC3CC3)nc2)cc1F` (stereo not shown) [Example 96, 2′-[6-(cyclopropylmethoxy)pyridin-3-yl]-3-fluoro-5′-[(morpholin-2-yl)methyl]-[1,1′-biphenyl]-4-carbonitrile], the IC50 lay in the range of 100 to 1000 nM.
In the case of `N#Cc1ccc(-c2cc(CC3CNCCO3)ccc2N2CCn3nc(C4CC4)cc3C2)cc1F` (stereo not shown) [Example 97, 2′-{2-cyclopropyl-4H,5H,6H,7H-pyrazolo[1,5-a]pyrazin-5-yl}-3-fluoro-5′-[(morpholin-2-yl)methyl]-[1,1′-biphenyl]-4-carbonitrile], the IC50 was over 1000 nM.
As for `COc1ccc(-c2ccc(CC3CNCCO3)cc2-c2ccc(C#N)c(F)c2)cc1F` (stereo not shown) [Example 98, 3-fluoro-2′-(3-fluoro-4-methoxyphenyl)-5′-[(morpholin-2-yl)methyl]-[1,1′-biphenyl]-4-carbonitrile], the figure is 100 to 1000 nM; as for `CC1(F)CCN(c2ccc(CC3CNCCO3)cc2-c2ccc(C#N)c(F)c2)CC1` (stereo not shown) [Example 99, 3-fluoro-2′-(4-fluoro-4-methylpiperidin-1-yl)-5′-[(morpholin-2-yl)methyl]-[1,1′-biphenyl]-4-carbonitrile], 100 to 1000 nM.
Consider `N#Cc1ccc(-c2cc(CC3CNCCO3)ccc2N2CCC(C3CCOC3)CC2)cc1F` (stereo not shown) [Example 100, 3-fluoro-5′-[(morpholin-2-yl)methyl]-2′-[4-(oxolan-3-yl)piperidin-1-yl]-[1,1′-biphenyl]-4-carbonitrile], for which the IC50 lay within 25 to 100 nM.
For `N#Cc1ccc(-c2cc(CC3CNCCO3)ccc2N2CC(c3ccc(C4CC4)nc3)C2)cc1F` (stereo not shown) [Example 101, 2′-[3-(6-cyclopropylpyridin-3-yl)azetidin-1-yl]-3-fluoro-5′-[(morpholin-2-yl)methyl]-[1,1′-biphenyl]-4-carbonitrile], the IC50 was in the range of 100 to 1000 nM.
In the case of `N#Cc1ccc(-c2cc(CC3CNCCCO3)ccc2N2CCC2)cc1F` (stereo not shown) [Example 102, 2′-(azetidin-1-yl)-3-fluoro-5′-[(1,4-oxazepan-2-yl)methyl]-[1,1′-biphenyl]-4-carbonitrile], the half-maximal inhibitory concentration (IC50) was in the range of 25 to 100 nM.
In the case of `CC1(C)CNCC(Cc2cccc(-c3ccc(C#N)cc3)c2-c2cncs2)O1` (stereo not shown) [Example 103, 3′-[(6,6-dimethylmorpholin-2-yl)methyl]-2′-(1,3-thiazol-5-yl)-[1,1′-biphenyl]-4-carbonitrile], the IC50 was 10 to 25 nM.
As to `CC(C)(O)Cc1ccc(-c2ccc(CC3CNCCO3)cc2-c2ccc(C#N)c(F)c2)c(F)c1` (stereo not shown) [Example 104, 3-fluoro-2′-[2-fluoro-4-(2-hydroxy-2-methylpropyl)phenyl]-5′-[(morpholin-2-yl)methyl]-[1,1′-biphenyl]-4-carbonitrile], the half-maximal inhibitory concentration (IC50) was 25 to 100 nM.
As for `N#Cc1ccc(-c2cc(CC3CNCCO3)ccc2N2CCN(CC(F)F)CC2)cc1F` (stereo not shown) [Example 105, 2′-[4-(2,2-difluoroethyl)piperazin-1-yl]-3-fluoro-5′-[(morpholin-2-yl)methyl]-[1,1′-biphenyl]-4-carbonitrile], the figure is 100 to 1000 nM; as for `N#Cc1ccc(-c2cc(CC3CNCCO3)ccc2COc2cccnc2)cc1F` (stereo not shown) [Example 106, 3-fluoro-5′-[(morpholin-2-yl)methyl]-2′-[(pyridin-3-yloxy)methyl]-[1,1′-biphenyl]-4-carbonitrile], 100 to 1000 nM.
As to `N#Cc1ccc(-c2cc(CC3CNCCO3)ccc2N2CC(c3cccnc3)C2)cc1F` (stereo not shown) [Example 107, 3-fluoro-5′-[(morpholin-2-yl)methyl]-2′-[3-(pyridin-3-yl)azetidin-1-yl]-[1,1′-biphenyl]-4-carbonitrile], the IC50 was 100 to 1000 nM.
With `N#Cc1ccc(-c2cccc(N3CCC4NCCC4C3)c2-c2ccns2)cc1F` (stereo not shown) [Example 108, 3-fluoro-3'-{octahydro-1H-pyrrolo[3,2-c]pyridin-5-yl}-2'-(1,2-thiazol-5-yl)-[1,1'-biphenyl]-4-carbonitrile], the IC50 was under 10 nM.
Take `N#Cc1ccc(-c2cccc(CC3CCNC3)c2-c2ccns2)cc1F` (stereo not shown) [Example 109, 2-fluoro-4-[2-isothiazol-5-yl-3-(pyrrolidin-3-ylmethyl)phenyl]benzonitrile; hydrochloride]: the IC50 was under 10 nM.
Turning to `N#Cc1ccc(-c2cccc(N3CCC(N)CC3)c2-c2ccns2)cc1F` [Example 110, 3'-(4-aminopiperidin-1-yl)-3-fluoro-2'-(1,2-thiazol-5-yl)-[1,1'-biphenyl]-4-carbonitrile], the IC50 is 10 to 25 nM.
As for `N#Cc1ccc(-c2cccc(CC3CCOCC3)c2-c2ccns2)cc1F` [Example 111, 3-fluoro-3′-[(oxan-4-yl)methyl]-2′-(1,2-thiazol-5-yl)-[1,1′-biphenyl]-4-carbonitrile], the IC50 was in the range of 25 to 100 nM.
On to `N#Cc1ccc(-c2cccc(OC3CC4CNC3C4)c2-c2ccns2)cc1F` (stereo not shown) [Example 112, 3′-{2-azabicyclo[2.2.1]heptan-6-yloxy}-3-fluoro-2′-(1,2-thiazol-5-yl)-[1,1′-biphenyl]-4-carbonitrile], for which the 50% inhibitory concentration (IC50) lay in the range of 10 to 25 nM.
As for `Cc1sncc1-c1c(CC2CNCCO2)cccc1-c1ccc(C#N)c(F)c1` [Example 113, (2R,3R)-2,3-dihydroxybutanedioic acid; 2-fluoro-4-[2-(5-methylisothiazol-4-yl)-3-(morpholin-2-ylmethyl)phenyl]benzonitrile], the figure is 100 to 1000 nM.
`N#Cc1ccc(-c2cccc(N3CCC(N)CC3)c2-c2cncs2)cc1F` [Example 115, 3'-(4-aminopiperidin-1-yl)-3-fluoro-2'-(1,3-thiazol-5-yl)-[1,1'-biphenyl]-4-carbonitrile]: the IC50 was in the range of 10 to 25 nM.
As to `CNC1CCN(c2cccc(-c3ccc(C#N)c(F)c3)c2-c2cncs2)CC1` [Example 116, 3-fluoro-3'-[4-(methylamino)piperidin-1-yl]-2'-(1,3-thiazol-5-yl)-[1,1'-biphenyl]-4-carbonitrile], the IC50 lay in the range of 10 to 25 nM.
